Each structure is given as a SMILES string.

Assay [1] has as its system MCF7. The assay is described as follows: Antiproliferative activity against human MCF7 cells at 0.01 to 100 nmol/L after 2 days by MTT assay. Type of assay: functional. (Tetrazolium dyes change colour on reduction, which living cells bring about.)
Assay [2] concerns MCF7. Briefly: Antiproliferative activity against human MCF7 cells after 2 days by MTT assay. Type of assay: functional, cell-based. Particulars: for IC50: MCF7, 48 h.

Take `C/C(=C\c1csc(C)n1)[C@@H]1C[C@@H]2O[C@]2(C)CCC[C@H](C)[C@H](OC(=O)CO[C@@H]2O[C@H](CO)[C@H](O)[C@H](O)[C@H]2O)[C@@H](C)C(=O)C(C)(C)[C@@H](O)CC(=O)O1`: the Activity in assay [1] is listed as 7.9 - 98.6%. Also, the IC50 (as a rule, the point on the concentration scale where inhibition reaches its midpoint) in assay [2] stood at 5730 nM.

In the case of `C/C(=C\c1csc(C)n1)[C@@H]1C[C@@H]2O[C@]2(C)CCC[C@H](C)[C@H](O)[C@@H](C)C(=O)C(C)(C)[C@@H](O)CC(=O)O1` [PATUPILONE], the Activity in assay [1] is recorded as 3 - 80.3%. In assay [2], the Activity entry was “Dose-dependent effect” and the IC50 stood at 38.2 nM.

For the origin of these results see ChEMBL document CHEMBL4265990, “Synthesis, anticancer activity and cytotoxicity of galactosylated epothilone B” (Bioorg Med Chem, 2018).
